From patent publication US20200288710A1, “SUBSTITUTED SULPHONAMIDES FOR CONTROLLING ANIMAL PESTS” (BAYER CROPSCIENCE AKTIENGESELLSCHAFT, priority 2016, published 2020)
Like-named read-outs stand apart in the source and are kept apart here.

Key:
[1] = log P by HPLC on reversed-phase column (EEC Directive 79/831 Annex V.A8); assay type: physicochemical; conditions: reversed-phase HPLC column (C18)
Experimental: The log P values were determined according to EEC Directive 79/831 Annex V.A8 by HPLC (highperformance liquid chromatography) on a reversed-phase column (C18). Temperature 43° C. The calibration is effected with unbranched alkan-2-ones (having 3 to 16 carbon atoms), for which the log P values are known. The determination of the M^+ by LC-MS in the acidic range was carried out at pH 2.7 using the mobile phases 0.1% aqueous formic acid and acetonitrile (contains 0.1% formic acid); linear gradient from 10% acetonitrile to 95% acetonitrile, instrument: Agilent 1100 LC system, Agilent MSD system, HTS PAL. The determination of the M^+ by LC-MS in the neutral range was carried out at pH 7.8 using the mobile phases 0.001 molar aqueous ammonium bicarbonate solution and acetonitrile; linear gradient from 10% acetonitrile to 95% acetonitrile. The log P values for the acidic range (as log P [a]) and/or for the neutral range (as log P [n]) were stated in the tables and preparation examples.

Musca domestica = Musca domestica test; assay type: in vivo; conditions: 48 h, adult houseflies, after 2 days, read-out: efficacy (kill in %)
Experimental: Musca domestica Test Solvent: dimethyl sulphoxide To produce a suitable preparation of active compound, 10 mg of active compound are mixed with 0.5 ml of dimethyl sulphoxide, and the concentrate is diluted with water to the desired concentration. Vessels containing a sponge treated with sugar solution and the active compound preparation of the desired concentration are populated with 10 adult houseflies (Musca domestica). After 2 days, the kill in % is determined. 100% means that all of the flies have been killed; 0% means that none of the flies have been killed.

Meloidogyne incognita = Meloidogyne incognita test; assay type: in vivo; conditions: 336 h, lettuce, after 14 days, read-out: nematicidal efficacy (formation of galls)
Summary of the method: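 Active compound in acetone, diluted with water, added to sand-filled vessels with M. incognita eggs/larvae and lettuce seeds. After 14 days, efficacy scored by root gall formation: 100% = no galls, 0% = galls equal to untreated control.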

Myzus persicae [2] = test: Myzus persicae spray test (Chinese cabbage leaf discs); assay type: in vivo; conditions: foliar, 120 h, 500 g/ha, after 5-6 days, read-out: efficacy
Summary of the method: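 Chinese cabbage leaf discs infested with all stages of green peach aphid were sprayed with compound formulated in acetone/DMF and emulsifier-containing water. Efficacy in % was scored after 5-6 days, with 100% meaning all aphids killed and 0% none killed.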

Myzus persicae [3] = test: Myzus persicae oral test; assay type: in vivo; conditions: 120 h, 20 ppm, oral uptake, after 5 days, read-out: efficacy
Summary of the method: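 Compound dissolved in acetone, diluted in water, then mixed 50:150 μl with IPL41 insect medium (33%+15% sugar). Mixed-population green peach aphids feed through a parafilm seal on the solution; mortality scored as % efficacy after 5 days (100% = all killed).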

Lucilia cuprina = Lucilia cuprina test; assay type: in vivo; conditions: 48 h, L1 larvae, after 2 days, read-out: efficacy (kill in %)
Experimental: Lucilia cuprina Test Solvent: dimethyl sulphoxide To produce a suitable preparation of active compound, 10 mg of active compound are mixed with 0.5 ml of dimethyl sulphoxide, and the concentrate is diluted with water to the desired concentration. About 20 L1 larvae of the Australian sheep blowfly (Lucilia cuprina) are transferred into a test vessel containing minced horsemeat and the active compound preparation of the desired concentration. After 2 days, the kill in % is determined. 100% means that all the larvae have been killed; 0% means that no larvae have been killed.

Phaedon cochleariae = Phaedon cochleariae spray test; assay type: in vivo; conditions: foliar, 168 h, Chinese cabbage leaf discs, larvae, after 7 days, read-out: efficacy
Summary of the method: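 Compound dissolved in solvent and diluted with water containing 1000 ppm emulsifier to test concentrations. Efficacy read after 7 days as % beetle larvae killed (100% all killed, 0% none).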

Tetranychus urticae = Tetranychus urticae spray test, OP-resistant; assay type: in vivo; conditions: foliar, 144 h, bean leaf discs, after 6 days, read-out: efficacy
Experimental: Tetranychus urticae—Spray Test, OP-Resistant
To produce a suitable preparation of active compound, 1 part by weight of active compound is dissolved using the specified parts by weight of solvent and made up with water containing an emulsifier concentration of 1000 ppm until the desired concentration is attained. To produce further test concentrations, the formulation is diluted with emulsifier-containing water.
Discs of bean leaves (Phaseolus vulgaris) infested with all stages of the greenhouse red spider mite (Tetranychus urticae) are sprayed with an active compound preparation of the desired concentration.
After 6 days, the efficacy in % is determined. 100% means that all the spider mites have been killed; 0% means that no spider mites have been killed.

[4] = neutral range, pH 7.8, HPLC C18, 43° C., read-out: log P (neutral)
[5] = acidic range, pH 2.7, HPLC C18, 43° C., read-out: log P (acidic)

Row | Structure (SMILES) | chromatographic logP [1, 4] | pest or weed control at 100 ppm (Musca domestica) [%] | pest or weed control at 20 ppm (Meloidogyne incognita) [%] | pest or weed control at 500 g/ha (Myzus persicae [2]) [%] | pest or weed control at 20 ppm (Myzus persicae [3]) [%] | pest or weed control at 500 g/ha (Phaedon cochleariae) [%] | other results
1 | CCOC(=O)c1nc(-c2c(F)cccc2F)n(C)c1C [ethyl 2-(2,6-difluorophenyl)-1,5-dimethyl-1H-imidazole-4-carboxylate] | 2 | – | – | – | – | – | –
2 | Cn1cc(C(=O)NS(=O)(=O)c2cc(C(F)(F)F)ccc2Cl)nc1-c1ccccc1Cl [Example 52] | – | 80 | 90 | 90 | 100 | – | –
3 | CCOC(=O)c1cc(O)n(-c2ccccc2Cl)n1 [ethyl 1-(2-chlorophenyl)-5-hydroxy-1H-pyrazole-3-carboxylate] | – | – | – | – | – | – | chromatographic logP [1, 5]: 1.75
4 | Cn1cc(C(=O)OC(C)(C)C)nc1-c1c(F)cccc1F [tert-butyl 2-(2,6-difluorophenyl)-1-methyl-1H-imidazole-4-carboxylate] | 2.3 | – | – | – | – | – | –
5 | Cn1cc(C(=O)O)nc1-c1c(F)cccc1F [2-(2,6-difluorophenyl)-1-methyl-1H-imidazole-4-carboxylic acid] | 2.3 | – | – | – | – | – | –
6 | COc1ccc(Cl)c(S(=O)(=O)NC(=O)c2cn(C)c(-c3c(F)cccc3Cl)n2)c1 [Example 107] | – | 100 | – | 100 | 100 | 100 | pest or weed control at 100 ppm (Lucilia cuprina): 100%
7 | CCc1cccc(C(F)(F)F)c1S(=O)(=O)NC(=O)c1cn(C)c(-c2c(F)cccc2F)n1 [Example 337] | – | 80 | 90 | 90 | 100 | 100 | –
8 | CCc1[nH]c(-c2c(F)cccc2F)nc1C(=O)O [2-(2,6-difluorophenyl)-5-ethyl-1H-imidazole-4-carboxylic acid] | 0.45 | – | – | – | – | – | –
9 | CCOC(=O)c1ncn(C)c1C [ethyl 1,5-dimethyl-1H-imidazole-4-carboxylate] | 0.85 | – | – | – | – | – | –
10 | Cc1ccccc1S(=O)(=O)NC(=O)c1cn(C)c(-c2ccccc2F)n1 [Example 32] | – | 80 | 90 | 90 | 100 | – | –
11 | CCOC(=O)c1cc(OC)n(-c2ccccc2Cl)n1 [ethyl 1-(2-chlorophenyl)-5-methoxy-1H-pyrazole-3-carboxylate] | – | – | – | – | – | – | chromatographic logP [1, 5]: 2.61
12 | CCOC(=O)c1nc(-c2c(F)cccc2F)[nH]c1CC [ethyl 2-(2,6-difluorophenyl)-5-ethyl-1H-imidazole-4-carboxylate] | – | – | – | – | – | – | chromatographic logP [1, 5]: 1.73
13 | COc1ccc(Cl)c(S(=O)(=O)NC(=O)c2cn(C)c(-c3c(Cl)cccc3Cl)n2)c1 [Example 101] | – | – | 90 | 90 | 100 | 100 | pest or weed control at 100 ppm (Lucilia cuprina): 100%; pest or weed control at 500 g/ha (Tetranychus urticae): 90%
14 | Cn1cc(C(=O)OC(C)(C)C)nc1Br [tert-butyl 2-bromo-1-methyl-1H-imidazole-4-carboxylate] | – | – | – | – | – | – | chromatographic logP [1, 5]: 2.41
15 | Cn1cncc1C(=O)OC(C)(C)C [tert-butyl 1-methyl-1H-imidazole-5-carboxylate] | 1.71 | – | – | – | – | – | –
16 | CCOC(=O)c1nc(Br)n(C)c1C [Ethyl 2-Bromo-1,5-Dimethyl-1H-Imidazole-4-Carboxylate] | 1.69 | – | – | – | – | – | –
17 | Cn1cnc(C(=O)OC(C)(C)C)c1 [tert-butyl 1-methyl-1H-imidazole-4-carboxylate] | – | – | – | – | – | – | chromatographic logP [1, 5]: 0.63

Row | Structure (SMILES) | chromatographic logP [1, 4] | pest or weed control at 100 ppm (Musca domestica) [%] | pest or weed control at 20 ppm (Meloidogyne incognita) [%] | pest or weed control at 500 g/ha (Myzus persicae [2]) [%] | pest or weed control at 20 ppm (Myzus persicae [3]) [%] | pest or weed control at 500 g/ha (Phaedon cochleariae) [%] | other results
18 | COc1ccc(OC)c(S(=O)(=O)NC(=O)c2cn(C)c(-c3c(F)cccc3Cl)n2)c1 [Example 151] | – | 100 | – | 100 | – | – | –
19 | Cc1c(C(=O)O)nc(-c2c(F)cccc2F)n1C [2-(2,6-difluorophenyl)-1,5-dimethyl-1H-imidazole-4-carboxylic acid] | 2 | – | – | – | – | – | –
20 | CCc1ccccc1S(=O)(=O)NC(=O)c1cn(C)c(-c2c(F)cccc2F)n1 [Example 185] | – | 80 | 90 | 100 | 100 | – | –
21 | Cn1cc(C(=O)NS(=O)(=O)c2ccccc2Br)nc1-c1c(F)cccc1Cl [Example 152] | – | 80 | 100 | 90 | 100 | 100 | –
22 | Cn1c(C(=O)OC(C)(C)C)cnc1Br [tert-butyl 2-bromo-1-methyl-1H-imidazole-5-carboxylate] | 2.54 | – | – | – | – | – | –
23 | Cn1c(C(=O)O)cnc1-c1c(F)cccc1F [2-(2,6-difluorophenyl)-1-methyl-1H-imidazole-5-carboxylic acid] | – | – | – | – | – | – | chromatographic logP [1, 5]: 0.46
24 | COc1ccc(Br)c(S(=O)(=O)NC(=O)c2cn(C)c(-c3c(F)cccc3Cl)n2)c1 [Example 153] | – | 80 | 90 | 100 | 100 | 100 | –
25 | COc1ccc(F)cc1S(=O)(=O)NC(=O)c1cn(C)c(-c2c(F)cccc2Cl)n1 [Example 155] | – | 80 | – | 90 | 100 | – | –
26 | Cc1ccccc1S(=O)(=O)NC(=O)c1nc(-c2ccccc2Cl)n(C)c1Cl [5-chloro-2-(2-chlorophenyl)-1-methyl-N-[(2-methylphenyl)sulphonyl]-1 Himidazole-4-carboxamide] | – | – | – | – | – | – | chromatographic logP [1, 5]: 3.17
27 | Cc1c(F)cccc1S(=O)(=O)NC(=O)c1cn(C)c(-c2c(F)cccc2F)n1 [Example 318] | – | – | 90 | 100 | 100 | 100 | pest or weed control at 500 g/ha (Tetranychus urticae): 90%
28 | Cn1cc(C(=O)NS(=O)(=O)c2ccc(Cl)cc2Cl)nc1-c1c(F)cccc1F [Example 174] | – | 90 | 100 | 100 | 100 | 83 | –
29 | Cn1c(C(=O)OC(C)(C)C)cnc1-c1c(F)cccc1F [tert-butyl 2-(2,6-difluorophenyl)-1-methyl-1H-imidazole-5-carboxylate] | 3 | – | – | – | – | – | –
30 | Cn1cc(C(=O)NS(=O)(=O)c2ccc(Cl)cc2Cl)nc1-c1ccccc1Cl [Example 231] | – | 100 | 100 | 90 | – | 100 | pest or weed control at 100 ppm (Lucilia cuprina): 100%
31 | Cc1ccc(Cl)cc1S(=O)(=O)NC(=O)c1cn(C)c(-c2c(F)cccc2F)n1 [Example 172] | – | 90 | 100 | 90 | 100 | 100 | –
32 | COc1cc(C(=O)O)nn1-c1ccccc1Cl [1-(2-chlorophenyl)-5-methoxy-1H-pyrazole-3-carboxylic acid] | – | – | – | – | – | – | chromatographic logP [1, 5]: 1.63
33 | Cc1cccc(Cl)c1S(=O)(=O)NC(=O)c1cn(C)c(-c2ncccc2Cl)n1 [Example 576] | – | 100 | – | 100 | 100 | 100 | pest or weed control at 100 ppm (Lucilia cuprina): 100%
